Measured values reported in patent US20100121049A1, “INDENOISOQUINOLINONE ANALOGS AND METHODS OF USE THEREOF” (INOTEK PHARMACEUTICALS CORPORATION, priority 2007, published 2010).
Counter-ions that a name gives are not always drawn.

Biological target: T1, PARP (Mus musculus, UniProt P11103)
T1 construct: PARP Activity in Cultured Macrophages, Using a Whole-Cell Based Assay; host or cells: murine RAW macrophages
Test: PARP activity in cultured macrophages, whole-cell based assay (3H-NAD+ incorporation after hydrogen peroxide)
Details: murine RAW macrophages; compound 1 hour prior to hydrogen peroxide (0.5 mM) for 25 minutes; PARP activity by 3H-NAD+
Description: Effect of Indenoisoquinolinone Analogs on PARP Activity in Cultured Macrophages, Using a Whole-Cell Based Assay
The murine RAW macrophages (ATCC, American Type Culture Collection, Manassas, Va.) were grown in RPMI […] (Invitrogen Life Technologies; Carlsbad, Calif.) medium supplemented with 10% heat-inactivated FBS, 2 mM L-glutamine, and 100 U/ml of penicillin and streptomycin. Cells, between passages 5 and 15, were seeded at a density of 250,000 cells/well in 12 well plates and allowed to grow 48 hours before use. Growth medium was changed on the day of use. Cells were treated with an Indenoisoquinolinone Analog diluted in a growth medium supplemented with 10% fetal bovine serum (FBS) for 1 hour prior to the addition of hydrogen peroxide (0.5 mM) for a further 25 minutes. For the measurement of PARP activity, media was removed and replaced with 0.5 ml of the assay buffer (56 mM HEPES-pH 7.5, 28 mM KCl, 28 mM NaCl, 2 mM MgCl2, 0.01% digitonin, and 0.5 μCi/m1 of ^3H-NAD^+) for 20 minutes. After aspirating the assay buffer, cells were lysed and transferred to eppendorf tubes containing 250 μl of 50% ice-cold trichloroacetic acid (TCA), which were then placed at 4° C. for 4 hours. Samples were centrifuged at 10,000 g for 10 minutes and supernatant removed. The pellets were washed twice with 500 μl of ice-cold 5% w/v TCA. The pellets were then solubilized in 250 μl of NaOH (0.1 M) containing 2% SDS overnight at 37° C. and the PARP activity was then determined by measuring the radioactivity incorporated using a Wallac scintillation counter. The solubilized protein (250 μl) was mixed with 5 ml of scintillation fluid (ScintiSafe Plus, Fisher Scientific) before being counted for 3 minutes. EC50 values were determined from a dose-response curve.

T1 sequence (P11103 whole entry): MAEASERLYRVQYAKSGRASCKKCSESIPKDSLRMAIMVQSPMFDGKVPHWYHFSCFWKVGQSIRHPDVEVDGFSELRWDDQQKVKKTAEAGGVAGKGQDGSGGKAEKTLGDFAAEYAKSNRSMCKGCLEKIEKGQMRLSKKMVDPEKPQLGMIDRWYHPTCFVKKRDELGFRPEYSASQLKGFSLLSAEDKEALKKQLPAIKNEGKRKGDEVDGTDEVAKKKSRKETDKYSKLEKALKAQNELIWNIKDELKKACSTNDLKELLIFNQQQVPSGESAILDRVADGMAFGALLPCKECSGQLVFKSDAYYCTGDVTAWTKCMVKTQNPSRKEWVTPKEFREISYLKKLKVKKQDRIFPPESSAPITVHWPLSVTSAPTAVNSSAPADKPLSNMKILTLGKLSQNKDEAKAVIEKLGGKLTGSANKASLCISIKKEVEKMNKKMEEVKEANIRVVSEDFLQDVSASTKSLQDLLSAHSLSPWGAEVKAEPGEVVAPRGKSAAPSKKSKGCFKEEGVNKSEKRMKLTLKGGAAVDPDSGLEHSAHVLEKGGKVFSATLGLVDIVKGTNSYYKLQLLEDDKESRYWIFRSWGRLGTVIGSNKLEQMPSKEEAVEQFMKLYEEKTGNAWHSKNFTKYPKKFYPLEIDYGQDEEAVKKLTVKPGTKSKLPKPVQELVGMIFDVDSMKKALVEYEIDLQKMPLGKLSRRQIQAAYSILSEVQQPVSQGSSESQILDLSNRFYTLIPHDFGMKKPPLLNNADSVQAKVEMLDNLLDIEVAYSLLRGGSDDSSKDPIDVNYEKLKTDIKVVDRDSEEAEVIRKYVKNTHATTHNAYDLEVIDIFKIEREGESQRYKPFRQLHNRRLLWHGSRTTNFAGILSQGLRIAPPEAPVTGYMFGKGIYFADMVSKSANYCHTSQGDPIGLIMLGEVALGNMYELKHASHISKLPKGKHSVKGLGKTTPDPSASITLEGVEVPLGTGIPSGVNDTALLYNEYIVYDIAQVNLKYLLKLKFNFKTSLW

EC50 | Compound
10 nM | O=c1[nH]c2c(c3ccccc13)Cc1cc(CN3CCN(CC4CC4)CC3)ccc1-2 [Dihydrochloride salt of IIIb-3, 9-[1-(4-Cyclopropylmethylpiperazino)methyl]-5,6-dihydro-5-oxo-11-H-indeno[1,2-c]isoquinoline dihydrochloride]
20 nM | O=c1[nH]c2c(c3ccccc13)Cc1cc(CN3CCN(C4CCCCC4)CC3)ccc1-2 [Dihydrochloride salt of IIIb-14, 9-[1-(4-Cyclohexylpiperazino)methyl]-5,6-dihydro-5-oxo-11-H-indeno[1,2-c]isoquinoline dihydrochloride]
45 nM | CC(C)N1CCN(Cc2cccc3c2Cc2c-3[nH]c(=O)c3ccccc23)CC1 [IIIa-1, 10-[1-(4-iso-Propylpiperazino)methyl]-5,6-dihydro-5-oxo-11-H-indeno[1,2-c]isoquinoline]
20 nM | CC(C)N1CCN(Cc2ccc3c(c2)Cc2c-3[nH]c(=O)c3ccccc23)CC1 [IIIb-1, 9-[1-(4-iso-Propylpiperazino)methyl]-5,6-dihydro-5-oxo-11-H-indeno[1,2-c]isoquinoline]
25 nM | CCCCN1CCN(Cc2ccc3c(c2)Cc2c-3[nH]c(=O)c3ccccc23)CC1 [IIIb-2, 9-[1-(4-Butylpiperazino)methyl]-5,6-dihydro-5-oxo-11-H-indeno[1,2-c]isoquinoline]
75 nM | O=c1[nH]c2c(c3ccccc13)Cc1cc(CN3CCN(c4ncccn4)CC3)ccc1-2 [IIIb-8, 9-{1-[4-(2-Pyrimidyl)piperazino]methyl}-5,6-dihydro-5-oxo-11-H-indeno[1,2-c]isoquinoline]
20 nM | O=c1[nH]c2c(c3ccccc13)Cc1cc(CN3CCN(C4CCCC4)CC3)ccc1-2 [IIIb-9, 9-[1-(4-Cyclopentylpiperazino)methyl]-5,6-dihydro-5-oxo-11-H-indeno[1,2-c]isoquinoline dihydrochloride]
75 nM | CCOCCN1CCN(Cc2ccc3c(c2)Cc2c-3[nH]c(=O)c3ccccc23)CC1 [IIIb-10, 9-{1-[4-(2-Ethoxyethyl)piperazino]methyl}-5,6-dihydro-5-oxo-11-H-indeno[1,2-c]isoquinoline]
25 nM | CN1CCCN(Cc2ccc3c(c2)Cc2c-3[nH]c(=O)c3ccccc23)CC1 [IIIb-13, 9-[1-(4-Methylhomopiperazino)methyl]-5,6-dihydro-5-oxo-11-H-indeno[1,2-c]isoquinoline]
75 nM | CC(C)(O)CN1CCN(Cc2ccc3c(c2)Cc2c-3[nH]c(=O)c3ccccc23)CC1 [IIIb-18, 9-[4-(2-Hydroxy-2-methyl-propyl-piperazino)methyl]-5,6-dihydro-5-oxo-11-H-indeno[1,2-c]isoquinoline dihydrochloride]
> 100 nM | O=c1[nH]c2c(c3ccccc13)Cc1cc(CN3CCCCCC3)ccc1-2 [IIIb-22, 9-(1-Homopiperidinomethyl)-5,6-dihydro-5-oxo-11-H-indeno[1,2-c]isoquinoline]
45 nM | C=CCN1CCN(Cc2ccc3c(c2)Cc2c-3[nH]c(=O)c3ccccc23)CC1 [IIb-1, 9-[1-(4-Allylpiperazino)methyl]-5,6-dihydro-5-oxo-11-H-indeno[1,2-c]isoquinoline]
45 nM | N#CCCN1CCN(Cc2ccc3c(c2)Cc2c-3[nH]c(=O)c3ccccc23)CC1 [IIb-66, 9-{1-[4-(2-Cyanoethyl)piperazino]methyl}-5,6-dihydro-5-oxo-11-H-indeno[1,2-c]isoquinoline]
60 nM | CCC(=O)N1CCCN(Cc2ccc3c(c2)Cc2c-3[nH]c(=O)c3ccccc23)CC1 [IIb-118, 9-[(4-Propionyl-homopiperazino)methyl]-5,6-dihydro-5-oxo-11-H-indeno[1,2-c]isoquinoline hydrochloride]
75 nM | O=C(CN1CCN(Cc2ccc3c(c2)Cc2c-3[nH]c(=O)c3ccccc23)CC1)N1CCCC1 [IIb-157, 9-{1-[4-(1-Pyrrolidinocarbonylmethyl)piperazino]methyl}-5,6-dihydro-5-oxo-11-H-indeno[1,2-c] isoquinoline]
75 nM | O=C(C1CC1)N1CCN(Cc2ccc3c(c2)Cc2c-3[nH]c(=O)c3ccccc23)CC1 [IIb-170, 9-{1-[4-(Cyclopropylcarbonyl)piperazino]methyl}-5,6-dihydro-5-oxo-11-H-indeno[1,2-c]isoquinoline]
75 nM | CCOC(CN1CCN(Cc2ccc3c(c2)Cc2c-3[nH]c(=O)c3ccccc23)CC1)OCC [IIb-196, 9-{1-[4-(2,2-Diethoxyethyl)piperazino]methyl}-5,6-dihydro-5-oxo-11-H-indeno[1,2-c]isoquinoline]
55 nM | O=c1[nH]c2c(c3ccccc13)Cc1cc(CN3CCC(F)(F)CC3)ccc1-2 [Methylsulfonate salt of IIIb-15, 9-[1-(4,4-Difluoropiperidino)methyl]-5,6-dihydro-5-oxo-11-H-indeno[1,2-c]isoquinoline methylsulfonate]

Further lines, the compound ahead of its results:

Compound | EC50
CCCCN1CCN(Cc2cccc3c2Cc2c-3[nH]c(=O)c3ccccc23)CC1 [IIIa-2, 10-[1-(4-Butylpiperazino)methyl]-5,6-dihydro-5-oxo-11-H-indeno[1,2-c]isoquinoline] | 25 nM
O=c1[nH]c2c(c3ccccc13)Cc1c(CN3CCN(CC4CC4)CC3)cccc1-2 [IIIa-3, 10-[1-(4-Cyclopropylmethylpiperazino)methyl]-5,6-dihydro-5-oxo-11-H-indeno[1,2-c]isoquinoline] | 20 nM
O=c1[nH]c2c(c3ccccc13)Cc1c(CNCCCO)cccc1-2 [IIIa-4, 10-[N-1-(3-Hydroxypropyl)aminomethyl]-5,6-dihydro-5-oxo-11-H-indeno[1,2-c]isoquinoline] | 15 nM
O=c1[nH]c2c(c3ccccc13)Cc1c(CNCCN3CCCC3)cccc1-2 [IIIa-5, 10-[N-(2-Pyrollidinoethyl)aminomethyl}-5,6-dihydro-5-oxo-11-H-indeno[1,2-c]isoquinoline] | 40 nM
O=c1[nH]c2c(c3ccccc13)Cc1c(CN3CCN(c4ncccn4)CC3)cccc1-2 [IIIa-8, 10-{1-[4-(2-Pyrimidyl)piperazino]methyl}-5,6-dihydro-5-oxo-11-H-indeno[1,2-c]isoquinoline] | 75 nM
O=c1[nH]c2c(c3ccccc13)Cc1c(CN3CC[C@H](F)C3)cccc1-2 [IIIa-11, 10-[S-(3-Fluoropyrrolidino)methyl]-5,6-dihydro-5-oxo-11-H-indeno[1,2-c]isoquinoline] | 12 nM
O=c1[nH]c2c(c3ccccc13)Cc1c(CN3CC=CCC3)cccc1-2 [IIIa-12, 10-[(3,4-Dehydropiperidino)methyl]-5,6-dihydro-5-oxo-11-H-indeno[1,2-c]isoquinoline] | 7 nM
CC(C)(C)OC(=O)N1CCN(Cc2ccc3c(c2)Cc2c-3[nH]c(=O)c3ccccc23)CC1 [IIIb-16, 9-[(4-tert-Butoxycarbonyl-piperazino)methyl]-5,6-dihydro-5-oxo-11-H-indeno[1,2-c]isoquinoline] | > 100 nM
CN(CCN1CCOCC1)Cc1ccc2c(c1)Cc1c-2[nH]c(=O)c2ccccc12 [IIIb-19] | 30 nM
C[C@@H]1CN(Cc2ccc3c(c2)Cc2c-3[nH]c(=O)c3ccccc23)C[C@H](C)N1 [IIIb-24, 9-[1-(3,5-Dimethylpiperazino)methyl]-5,6-dihydro-5-oxo-11-H-indeno[1,2-c]isoquinoline] | > 60 nM
C=CCN1CCN(Cc2cccc3c2Cc2c-3[nH]c(=O)c3ccccc23)CC1 [IIa-1, 10-[1-(4-Allylpiperazino)methyl]-5,6-dihydro-5-oxo-11-H-indeno[1,2-c]isoquinoline] | 20 nM
O=c1[nH]c2c(c3ccccc13)Cc1c(CN3CCC4(CC3)OCCO4)cccc1-2 [IIa-14, 10-[(4,4-Ethylenedioxy-piperidino)methyl]-5,6-dihydro-5-oxo-11-H-indeno[1,2-c]isoquinoline] | 30 nM
O=c1[nH]c2c(c3ccccc13)Cc1c(CNC3(CO)CCCC3)cccc1-2 [IIa-27, 10-{N-[1-(Hydroxymethyl)cyclopentyl]aminomethyl}-5,6-dihydro-5-oxo-11-H-indeno[1,2-c]isoquinoline] | < 10 nM
CCC(C)n1c2cc(CN3CCC4(CC3)OCCO4)ccc2c2[nH]c(=O)c3ccccc3c21 (centres unmarked) [IIb-23] | 80 nM
CC(C)(C)OC(=O)N1CCC(N(Cc2ccc3c(c2)Cc2c-3[nH]c(=O)c3ccccc23)C2CC2)CC1 [IIb-79, 9-{N-[4-(1-Boc-piperidyl)]-N-cyclopropylaminomethyl}-5,6-dihydro-5-oxo-11-H-indeno[1,2-c]isoquinoline] | > 60 nM
CC(C)(C)OC(=O)N1CCC(NCc2ccc3c(c2)Cc2c-3[nH]c(=O)c3ccccc23)CC1 [IIb-92, 9-{N-[4-(1-Boc-piperidyl)]aminomethyl}-5,6-dihydro-5-oxo-11-H-indeno[1,2-c]isoquinoline] | > 60 nM
O=c1[nH]c2c(c3cccc(Cl)c13)Cc1c(CNC3CCCC3)cccc1-2 [Va-1, 4-chloro-10-((cyclopentylamino)methyl)-6,11-dihydro-5H-indeno[1,2-c]isoquinolin-5-one] | > 100 nM
